Test results: patent US11814366B2, “Antiviral compounds and use thereof” (UNIVERSITA DEGLI STUDI DI SIENA, priority 2018, dated 2023)
“Also recorded” adds a separate entry of the source.

Columns and labels:
[1] = Cell viability (MTS) assay, HELF cells; assay type: cell-based; conditions: human, conditions of the HCMV assay
Experimental: (§1) Cell viability was measured using the MITS [3-(4,5-dimethylthiazol-2-yl)-5-(3 carboxy methoxy phenyl)-2-(4-sulfophenyl)-2H-tetrazolium] assay. Cell cultures were seeded in 96-well plates and were incubated with different concentrations of compounds of the invention in triplicate under the same experimental conditions described for the antiviral assays. Cell viability was determined using the CellTiter 96 Proliferation Assay Kit (Promega, Madison, WI, USA) according to the manufacturer's instructions. Absorbances were measured using a Microplate Reader (Model 680, BIORAD) at 490 nm. The effect on cell viability at different concentrations of the compound was expressed as a percentage, by comparing absorbances of treated cells with those of cells incubated with culture medium and equal volumes of vehicle. The 50% cytotoxic concentrations (CC50) and 95% confidence intervals (CIs) were determined using Prism software (Graph-Pad Software, San Diego, CA).

[2] = tested on: HIV Strain NL4-3; assay: HIV-1 inhibition assay, strain NL4-3, TZM-bl cells, CPRG readout; assay type: cell-based; conditions: Human immunodeficiency virus 1, NL43, virus pretreated 1 h at 37° C. with compound
Experimental: The human TZM-bl indicator cell line (obtained from the NIH AIDS reagents program, cat. Nr 8129, www.aidsreagent.org) was maintained at 37° C. and 5% CO2 in Dulbecco's modified Eagle's medium (DMEM) medium containing 10% fetal bovine serum, 50 μg/ml penicillin, and 50 μg/ml streptomycin. The HIV-1 laboratory strains NL (AD8) (NIH AIDS reagents program, cat. Nr, 11346) and NL4.3 (NIH AIDS reagents program, cat. Nr. 114) were titrated as previously reported by Tiberi et al (2014). Briefly, serial 5-fold dilutions of each virus were made in quadruplicate wells in 96-well culture plates, in a total volume of 100 μl of growth medium (DMEM), for a total of 8 dilution steps. Freshly trypsinized cells (20,000 cells in 100 μl of growth medium containing 75 μg/mL DEAE-dextran) were added to each well, and the plates were incubated at 37° C. in a humidified 5% CO2-95% air environment. After 48 h of incubation, the medium was removed and viral infection was quantified using a β-galactosidase (CPRG) assay (Roche). Twenty thousand TZM-bl cells/well were seeded in 96-well plates in complete DMEM supplemented with 30 μg/ml DEAE-dextran (Sigma-Aldrich). Three hundred times the 50% tissue culture infective dose (TCID50)/ml of each strain was pretreated for 1 h at 37° C. with six serial dilutions (10000 nM, 2000 nM, 400 nM, 80 nM, 16 nM, 3.2 nM) and then added to the cells. Vehicle (0.1% dimethyl sulfoxide [DMSO])-treated cells served as a negative control. […] After 2 days, viral infection was quantified using a CPRG assay (Roche cat nr 11379119103). The inhibitory curves were fitted by nonlinear regression, allowing for the calculation of the 50% effective concentration (EC50) using the Prism software. To evaluate the cell toxicity of the compounds, the metabolic XTT [2,3-bis-(2-methoxy-4-nitro-5-sulfophenyl)-2H-tetrazolium-5-carboxanilide] test (Sigma-Aldrich) was performed according to the manufacturer's instructions.

[3] = Lipoperoxidation test (TBA assay)
Experimental: To evaluate the lipid oxidation capability of 15b, a lipoperoxidation test was carried out.
The effect of 15b was evaluated toward the oxidation of linoleic acid, incorporated in DPPC liposomes, using TBA assay. The assay is based on the reactivity of malondialdehyde (MDA), a colorless end-product of degradation, with 2-thiobarbituric acid (TBA) to produce a pink adduct (TBA-MDA-TBA) that absorbs at 535 nm. […] MDA was detected spectrophotometrically according to methods described in literature (Boon-Huat Bay, Yuan-Kun Lee, Benny Kwong-Huat Tan, Eng-Ang Ling, Lipid peroxidative stress and antioxidative enzymes in brains of milk-supplemented rats, Neuroscience Letters 277 (1999) 127-130).
15b was incubated at 37° C. for 2 h with a 0.5% linoleic acid containing liposome aqueous dispersion (Cagno, V.; Tintori, C.; Civra, A.; Cavalli, R.; Tiberi, M.; Botta, L.; Brai, A.; Poli, G.; Tapparel, C.; Lembo, D.; et al. Novel Broad Spectrum Virucidal Molecules against Enveloped Viruses. 2018). […] The organic supernatant was evaluated by spectrophotometry.
The calibration curve of TBA-MDA-TBA complex was obtained using a MDA precursor 1,1,3,3-tetraethoxypropane. […] The solutions were subjected to TBA assay and analyzed at spectrophotometer. […]

[4] = tested on: HSV-2; assay: Binding of virus to cell (ELISA, immunofluorescence); assay type: cell-based, Herpes 2 virus (HSV-2); conditions: 10 μM, HSV-2, Vero cells
Experimental: Vero Cells were plated in 96 well plates. The following day 10 μM of compound 15b in DMSO and HSV-2 (MOI 10 pfu/cell) were incubated for 1 h at 37° C. and subsequently added on cells for 2 hours at 4° C. Cells were then fixed with 4% paraformaldehyde, air dried, and blocked with 5% bovine serum albumin (BSA) in phosphate-buffered saline (PBS)-Tween. Binding of virus to vero cells was detected using the polyclonal HSV-2 antibody (Dako, Denmark) (diluted 1:250) incubated for 1 h at room temperature, washed three times with PBS-Tween, and incubated for 1 h at 37° C. with anti-rabbit conjugated to horseradish peroxidase (1:500). At the end of incubation, plates were washed three times with PBS-Tween, ABTS[2,2-azinobis(3-ethyl benz thiazoline sulfonic acid)] (A1888 SIGMA ALDRICH) substrate was added for 30 minutes (Thermo Scientific, Rockford, IL), and the absorbance at 405 nm was read.
Vero cells were pre-plated on coverslips and the following day the binding or entry protocol described above was applied. […] Rhodamine conjugated anti-rabbit IgG (Santa Cruz) was then added on cells for 1 h at 37° C. following 3 washes coverslips were mounted on microscope glasses and observed with Zeiss LSM510 fluorescence microscope (Zeiss, Oberkochen, Germany) and images were acquired (FIG. 3A, 3B).

[5] = tested on: H1N1; assay: H1N1 inhibition assay on MDCK cells; assay type: cell-based, Influenza virus H1N1
Experimental: MDCK cells were pre-plated in 96-well plates. The following day, concentrations of compounds ranging from 50 μM to 0.0001 μM in DMSO were mixed with H1N1 (MOI 0.05 pfu/cell) and incubated for 1 hour at 37° C. The mixtures were subsequently added to the cells for 1 h at 37° C., after a washout, cells were overlaid with MEM for 16 h at 37° C. Cells were then fixed and subjected to specific immunostaining using a Flu A monoclonal antibody (Merck 5001) in order to visualize infected cells. EC50 were calculated by comparing numbers of infected cells in treated and untreated wells. The effective concentration producing 50% reduction in plaque formation (EC50) was determined using Prism software. The selectivity index (SI) was calculated by dividing the CC50 by the EC50 value.

[6] = Cell viability (MTS) assay, MA104 cells; assay type: cell-based; conditions: African green monkey, conditions of the HRoV assay
Experimental: as §1

[7] = tested on: HSV2; assay: Virucidal assay; assay type: cell-based, Herpes 2 virus (HSV-2); conditions: 10 μM, 2 h at 37° C., titrated at dilutions where compound no more active
Experimental: Approximately 10^5 PFU of HSV2 plus 10 μM of 15b in DMSO were added to MEM and mixed in a total volume of 100 μl. The virus-compound mixtures were incubated for 2 h at 37° C. then diluted serially to the non-inhibitory concentration of test compound; the residual viral infectivity was determined by viral plaque assay (FIG. 2).

## O=C1NC(=S)N(CCc2ccccc2)C(=O)/C1=C\c1ccc(-c2ccc(C(=O)O)c(O)c2)[nH]1 [Compound 15b, (Z)-4-(5-((4,6-dioxo-1-phenethyl-2-thioxotetrahydropyrimidin-5(2H)-ylidene)methyl)-1H-pyrrol-2-yl)-2-hydroxybenzoic Acid]
[1]
  CC50: 36.3 µM
[2]
  EC50: 0.064 µM
[3]; 37° C. for 2 h, 0.5% linoleic acid containing liposomes, MDA readout
  lipid oxidation capability: able to oxidize polyunsaturated fatty acids
[3]; with 0.05% w/w (±)-α-tocopherol as antioxidant
  oxidation of linoleic acid with tocopherol added: reduced the oxidation of linoleic acid
[4]
  viral binding / percentage of bound virus: not impairing viral binding; also recorded: the same
[5]; H1N1, CC50 divided by EC50
  SI selectivity index: >77
[5]; Influenza A virus, H1N1, MDCK
  EC50: 1.24 µM
  EC90: 3.88 µM
[6]
  CC50: > 300 µM
[7]
  residual viral infectivity after virucidal incubation: never regained
